# Legend:
# [1] = system: lipase in the small intestines; conditions: background statement; cited from earlier work
# [2] = system: neuropeptide Y; test: Expression of neuropeptide Y in the hypothalamus by Western blotting; type: in vivo, rat; conditions: oral anthocyanin 24 mg, 40 days, versus control; Western blot
# [3] = system: GABAB receptor; test: Expression of GABAB receptor in the hypothalamus by Western blotting; type: in vivo, rat; conditions: rats administered anthocyanin orally, 40 days, versus control; Western blot densitometry
# Method: To examine the effect of an obesity prevention and treatment agent on the expression of GABAB receptor, the animals maintained as in Example 1 were collectively sacrificed at 10:00 AM 40 days after the oral administration, and the hypothalamus was excised from each of them. The hypothalamic sample was homogenized in 0.2 M PBS containing a protease inhibitor cocktail. Protein levels were measured using a Bio-Rad protein analysis solution, and after two rounds of ultracentrifugation at 4° C. and 12,000 rpm for 20 min, the supernatants containing proteins were separated. […] This membrane was blocked with 5% (v/v) skim milk to reduce non-specific binding, and incubated with a primary goat anti-GABABR1 antibody (1:200; Santa Cruz Biotechnology, Santa Cruz, Calif., USA) and an anti-beta-actin antibody for quantitative comparison, followed by immune reaction with a secondary HRP (horseradish peroxidase)-conjugated anti-goat and anti-rabbit IgG (1:1000; Santa Cruz Biotechnology, Santa Cruz, Calif., USA). Protein levels were determined by chemiluminescence using ECL-detecting reagent (Amersham Pharmacia Biotech, Western blotting detection reagents). Western blots on the X-ray film were analyzed by densitometry using computer-based Sigma Gel (SPSS Inc. Chicago, USA), and the results are shown in FIG. 3.
# [4] = Body weight change and daily food uptake in rats orally administered anthocyanin for 40 days; type: in vivo, rat; conditions: for weight increase: male Sprague-Dawley rats, control 79.33 g; for weight increase / weight at end of period: 40 days; for weight at end of period: control 116.33 g
# Method: For use in assay for the preventive and therapeutic effect of anthocyanin on obesity, male Sprague-Dawley rats, 60 days old (the Experimental Animal Breeding Center of the Gyeongsang National University, Jinju, Korea)) were divided groups of four which were then orally administered with anthocyanin at a dose of 6 mg and 24 mg, respectively, or not administered with anthocyanin for a control. They were maintained for 40 days in a temperature-controlled condition with lighting 06:00-20:00. While being maintained, the rats in each group were monitored for weight change and daily food uptake, and the results are shown in FIG. 1.
# [5] = system: p-CREB; test: Expression of p-CREB in the hypothalamus by Western blotting; type: in vivo, rat; conditions: oral anthocyanin 24 mg, 40 days, versus control; Western blot
# [6] = system: PKA-α; test: Expression of PKA-α in the hypothalamus by Western blotting; type: in vivo, rat; conditions: oral anthocyanin 24 mg, 40 days, versus control; Western blot
# [7] = system: epididymal white adipose tissue; test: Epididymal white adipose tissue adipocyte number per unit area (hematoxylin-eosin staining); type: in vivo, rat; conditions: epididymal WAT, 40 days, control 18.75
# Method: For hematoxylin-eosin staining, an epididymal white adipose tissue (WAT) was fixed at 4° C. for 72 hrs in ice-chilled 1× PBS containing 4% para-formaldehyde, and immersed at 4° C. for 72 hrs in 20% sucrose sucrose phosphate buffer for cryoprotection. The fixed tissue was frozen with O.C.T compound (A. O. USA), and 10 μm coronal sections were made in coronal planes (Leica cryostat CM 3050, Germany). The sections were mounted on a probe-on, positively charged slide at room temperature and stored at −70° C. until use.
# The animals bred as in Example 1 were collectively sacrificed at 10:00 AM 40 days after the oral administration, and epididymal white adipose tissue (WAT) was excised from each sacrificed animal and used for comparison of obesity. The epididymal WAT was fixed at 4° C. for 72 hrs in ice-chilled 1× PBS containing 4% para-formaldehyde, and immersed at 4° C. for 72 hrs in a 20% sucrose phosphate buffer for cryoprotection. The fixed tissue was frozen with O.C.T compound (A. O. USA), and 10 μm coronal sections were made in coronal planes (Leica cryostat CM 3050, Germany). The sections were mounted on probe-on, positively charged slides and thawed at room temperature for 3 hrs. […] Cover slips were mounted on the slides which were observed under a […] at 400× magnification.
compound,measurement,setting,value
CCCCCCCCCCC[C@@H](C[C@@H]1OC(=O)[C@H]1CCCCCC)OC(=O)[C@H](CC(C)C)NC=O [Orlistat],reduction of fat absorption,[1],about 30%
anthocyanin,expression level of neuropeptide Y in the hypothalamus,[2],decreased
same,expression level of GABAB receptor in the hypothalamus,[3],increased
same,weight increase,[4]; oral anthocyanin 6 mg,69 g
same,weight increase,[4]; oral anthocyanin 24 mg,69.67 g
same,weight at end of period,"[4]; oral anthocyanin 6 mg, from 32.33 g",101.33 g
same,weight at end of period,"[4]; oral anthocyanin 24 mg, from 28.33 g",98 g
same,daily food uptake,"[4]; oral anthocyanin 24 mg, control 20.03 g",16.43 g
same,expression level of p-CREB in the hypothalamus,[5],increase
same,expression level of PKA-α in the hypothalamus,[6],decrease
same,number of adipocytes per unit area,[7]; oral anthocyanin 6 mg,22.47 cells/250 mm^2
same,number of adipocytes per unit area,[7]; oral anthocyanin 24 mg,22.8 cells/250 mm^2

# — US20140162968A1, “METHOD FOR SCREENING OF AGENT FOR TREATING OR PREVENTING OBESITY” (priority 2011, published 2014)
